Calls of active or inactive are those of the source.
Assays:
[1] = biological target: Glycogen synthase kinase-3 beta (Homo sapiens, UniProt P49841); assay: Inhibition of human recombinant GSK3beta
[2] = biological target: Ephrin type-B receptor 2 (Homo sapiens, UniProt P29323); assay: Inhibition of human recombinant EphB2
[3] = biological target: Receptor-type tyrosine-protein kinase FLT3 (Homo sapiens) (UniProt P36888); assay: Inhibition of FLT3 in human MV4-11 cells assessed as down regulation of STAT5 phosphorylation at >0.001 uM after 6 hrs by Western blotting analysis; format: cell-based
[4] = biological target: Aurora kinase A (Homo sapiens, UniProt O14965); assay: Inhibition of human recombinant Aurora-A
[5] = biological target: Tyrosine-protein kinase Fyn (Homo sapiens, UniProt P06241); assay: Inhibition of human recombinant Fyn
[6] = biological target: Dual specificity mitogen-activated protein kinase kinase 1 (Homo sapiens, UniProt Q02750); assay: Inhibition of human recombinant MEK1
[7] = biological target: Serine/threonine-protein kinase PAK 2 (Homo sapiens, UniProt Q13177); assay: Inhibition of human recombinant PAK2
[8] = tested on: MDA-MB-231; assay: Cytotoxicity against human MDA-MB-231 cells assessed as cell viability after 72 hrs by MTT assay; format: functional, cell-based; details: MDA-MB-231, 72 h
[9] = biological target: Serine/threonine-protein kinase Chk1 (Homo sapiens, UniProt O14757); assay: Inhibition of human recombinant CHK1
[10] = biological target: BDNF/NT-3 growth factors receptor (Homo sapiens, UniProt Q16620); assay: Inhibition of human recombinant TrkB
[11] = biological target: Receptor-type tyrosine-protein kinase FLT3 (Homo sapiens) (UniProt P36888); assay: Inhibition of FLT3 in human MV4-11 cells assessed as down regulation of ERK1/2 phosphorylation at >0.001 uM after 6 hrs by Western blotting analysis; format: cell-based
[12] = biological target: Platelet-derived growth factor receptor beta (Homo sapiens, UniProt P09619); assay: Inhibition of human recombinant PDGFRbeta
[13] = biological target: Receptor-type tyrosine-protein kinase FLT3 (Homo sapiens) (UniProt P36888); assay: Inhibition of FLT3 phosphorylation in human MV4-11 cells after 6 hrs by Western blotting analysis; format: cell-based
[14] = biological target: Tyrosine-protein kinase Lyn (Homo sapiens, UniProt P07948); assay: Inhibition of human recombinant Lyn
[15] = Cytotoxicity against human UM-UC-3 cells assessed as cell viability after 72 hrs by MTT assay; format: functional, cell-based; details: UMUC3, 72 h
[16] = biological target: Tyrosine-protein kinase receptor UFO (Homo sapiens, UniProt P30530); assay: Inhibition of human recombinant Axl
[17] = biological target: Tyrosine-protein kinase SYK (Homo sapiens, UniProt P43405); assay: Inhibition of human recombinant Syk
[18] = biological target: Calcium/calmodulin-dependent protein kinase type IV (Homo sapiens, UniProt Q16566); assay: Inhibition of human recombinant CaMK4
[19] = biological target: Fibroblast growth factor receptor 2 (Homo sapiens, UniProt P21802); assay: Inhibition of human recombinant FGFR2
[20] = biological target: Cytoplasmic tyrosine-protein kinase BMX (Homo sapiens, UniProt P51813); assay: Inhibition of human recombinant Bmx
[21] = biological target: Proto-oncogene tyrosine-protein kinase receptor Ret (Homo sapiens, UniProt P07949); assay: Inhibition of human recombinant Ret
[22] = tested on: Raji; assay: Cytotoxicity against human Raji cells assessed as cell viability after 72 hrs by MTT assay; format: functional, cell-based
[23] = tested on: MDA-MB-453; assay: Cytotoxicity against human MDA-MB-453 cells assessed as cell viability after 72 hrs by MTT assay; format: functional, cell-based; details: MDA-MB-453, 72 h
[24] = Cytotoxicity against human OCI-LY19 cells assessed as cell viability after 72 hrs by MTT assay; format: functional, cell-based; details: OCI-LY19, 72 h
[25] = biological target: Vascular endothelial growth factor receptor 3 (Homo sapiens, UniProt P35916); assay: Inhibition of human recombinant Flt4
[26] = biological target: Platelet-derived growth factor receptor alpha (Homo sapiens, UniProt P16234); assay: Inhibition of human recombinant PDGFRalpha
[27] = biological target: Tyrosine-protein kinase Lck (Homo sapiens, UniProt P06239); assay: Inhibition of human recombinant Lck
[28] = biological target: Tyrosine-protein kinase Fes/Fps (Homo sapiens, UniProt P07332); assay: Inhibition of human recombinant Fes
[29] = biological target: Receptor tyrosine-protein kinase erbB-4 (Homo sapiens, UniProt Q15303); assay: Inhibition of human recombinant ErbB4
[30] = biological target: Cyclin-dependent kinase 2 (Homo sapiens, UniProt P24941); assay: Inhibition of human recombinant CDK2
[31] = tested on: MV4-11; assay: Cytotoxicity against human MV4-11 cells assessed as cell viability after 72 hrs by MTT assay; format: functional, cell-based; details: MV4-11, 72 h
[32] = tested on: A549; assay: Cytotoxicity against human A549 cells assessed as cell viability after 72 hrs by MTT assay; format: functional, cell-based; details: A549, 72 h
[33] = tested on: A2058; assay: Cytotoxicity against human A2058 cells assessed as cell viability after 72 hrs by MTT assay; format: functional, cell-based; details: A2058, 72 h
[34] = biological target: Aurora kinase B (Homo sapiens, UniProt Q96GD4); assay: Inhibition of human recombinant Aurora-B
[35] = biological target: Vascular endothelial growth factor receptor 2 (Homo sapiens, UniProt P35968); assay: Inhibition of human recombinant KDR
[36] = tested on: U-251; assay: Cytotoxicity against human U251 cells assessed as cell viability after 72 hrs by MTT assay; format: functional, cell-based; details: U-251, 72 h
[37] = tested on: BT-474; assay: Cytotoxicity against human BT474 cells assessed as cell viability after 72 hrs by MTT assay; format: functional, cell-based; details: BT-474, 72 h
[38] = biological target: Tyrosine-protein kinase JAK3 (Homo sapiens, UniProt P52333); assay: Inhibition of human recombinant JAK3
[39] = biological target: Mitogen-activated protein kinase kinase kinase 9 (Homo sapiens, UniProt P80192); assay: Inhibition of human recombinant MLK1
[40] = biological target: Epidermal growth factor receptor (Homo sapiens, UniProt P00533); assay: Inhibition of human recombinant EGFR
[41] = tested on: ZR-75-1; assay: Cytotoxicity against human ZR-75-1 cells assessed as cell viability after 72 hrs by MTT assay; format: functional, cell-based; details: ZR-75-1, 72 h
[42] = biological target: Serine/threonine-protein kinase/endoribonuclease IRE1 (Homo sapiens, UniProt O75460); assay: Inhibition of human recombinant IRE1
[43] = biological target: Ribosomal protein S6 kinase alpha-1 (Homo sapiens, UniProt Q15418); assay: Inhibition of human recombinant Rsk1
[44] = tested on: CWR22R; assay: Cytotoxicity against human 22Rv1 cells assessed as cell viability after 72 hrs by MTT assay; format: functional, cell-based; details: 22Rv1, 72 h
[45] = tested on: HT-29; assay: Cytotoxicity against human HT-29 cells assessed as cell viability after 72 hrs by MTT assay; format: functional, cell-based; details: HT-29, 72 h
[46] = biological target: Hepatocyte growth factor receptor (Homo sapiens, UniProt P08581); assay: Inhibition of human recombinant Met
[47] = Cytotoxicity against human KYSE-150 cells assessed as cell viability after 72 hrs by MTT assay; format: functional, cell-based; details: KYSE-150, 72 h
[48] = tested on: MDA-MB-435; assay: Cytotoxicity against human MDA-MB-435 cells assessed as cell viability after 72 hrs by MTT assay; format: functional, cell-based; details: MDA-MB-435, 72 h

Chain of Receptor-type tyrosine-protein kinase FLT3 (Homo sapiens) (P36888 whole entry): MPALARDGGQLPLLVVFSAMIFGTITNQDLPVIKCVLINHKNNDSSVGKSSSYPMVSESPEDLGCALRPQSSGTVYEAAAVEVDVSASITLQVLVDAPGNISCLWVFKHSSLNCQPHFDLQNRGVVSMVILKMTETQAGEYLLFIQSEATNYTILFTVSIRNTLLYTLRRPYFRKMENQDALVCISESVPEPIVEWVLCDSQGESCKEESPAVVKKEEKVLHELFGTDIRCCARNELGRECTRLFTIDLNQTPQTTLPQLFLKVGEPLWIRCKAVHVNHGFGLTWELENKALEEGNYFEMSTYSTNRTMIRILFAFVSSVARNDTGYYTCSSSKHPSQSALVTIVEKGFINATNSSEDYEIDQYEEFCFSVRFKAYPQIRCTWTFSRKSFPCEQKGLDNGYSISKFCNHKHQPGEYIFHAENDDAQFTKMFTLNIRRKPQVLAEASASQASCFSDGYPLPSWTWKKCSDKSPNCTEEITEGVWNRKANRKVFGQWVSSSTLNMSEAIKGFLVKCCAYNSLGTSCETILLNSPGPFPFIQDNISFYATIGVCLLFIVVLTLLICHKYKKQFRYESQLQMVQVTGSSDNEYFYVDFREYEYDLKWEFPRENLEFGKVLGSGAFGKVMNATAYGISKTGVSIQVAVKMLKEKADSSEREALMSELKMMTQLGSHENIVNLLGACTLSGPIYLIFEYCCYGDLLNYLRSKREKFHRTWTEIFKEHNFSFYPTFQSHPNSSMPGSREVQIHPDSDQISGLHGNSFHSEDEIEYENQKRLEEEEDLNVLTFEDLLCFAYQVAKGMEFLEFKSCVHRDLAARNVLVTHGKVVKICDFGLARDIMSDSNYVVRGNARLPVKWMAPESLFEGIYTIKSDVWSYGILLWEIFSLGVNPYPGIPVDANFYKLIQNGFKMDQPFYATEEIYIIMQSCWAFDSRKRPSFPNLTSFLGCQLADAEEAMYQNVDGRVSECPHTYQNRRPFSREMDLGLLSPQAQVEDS
Chain of Receptor tyrosine-protein kinase erbB-4 (Q15303 whole entry): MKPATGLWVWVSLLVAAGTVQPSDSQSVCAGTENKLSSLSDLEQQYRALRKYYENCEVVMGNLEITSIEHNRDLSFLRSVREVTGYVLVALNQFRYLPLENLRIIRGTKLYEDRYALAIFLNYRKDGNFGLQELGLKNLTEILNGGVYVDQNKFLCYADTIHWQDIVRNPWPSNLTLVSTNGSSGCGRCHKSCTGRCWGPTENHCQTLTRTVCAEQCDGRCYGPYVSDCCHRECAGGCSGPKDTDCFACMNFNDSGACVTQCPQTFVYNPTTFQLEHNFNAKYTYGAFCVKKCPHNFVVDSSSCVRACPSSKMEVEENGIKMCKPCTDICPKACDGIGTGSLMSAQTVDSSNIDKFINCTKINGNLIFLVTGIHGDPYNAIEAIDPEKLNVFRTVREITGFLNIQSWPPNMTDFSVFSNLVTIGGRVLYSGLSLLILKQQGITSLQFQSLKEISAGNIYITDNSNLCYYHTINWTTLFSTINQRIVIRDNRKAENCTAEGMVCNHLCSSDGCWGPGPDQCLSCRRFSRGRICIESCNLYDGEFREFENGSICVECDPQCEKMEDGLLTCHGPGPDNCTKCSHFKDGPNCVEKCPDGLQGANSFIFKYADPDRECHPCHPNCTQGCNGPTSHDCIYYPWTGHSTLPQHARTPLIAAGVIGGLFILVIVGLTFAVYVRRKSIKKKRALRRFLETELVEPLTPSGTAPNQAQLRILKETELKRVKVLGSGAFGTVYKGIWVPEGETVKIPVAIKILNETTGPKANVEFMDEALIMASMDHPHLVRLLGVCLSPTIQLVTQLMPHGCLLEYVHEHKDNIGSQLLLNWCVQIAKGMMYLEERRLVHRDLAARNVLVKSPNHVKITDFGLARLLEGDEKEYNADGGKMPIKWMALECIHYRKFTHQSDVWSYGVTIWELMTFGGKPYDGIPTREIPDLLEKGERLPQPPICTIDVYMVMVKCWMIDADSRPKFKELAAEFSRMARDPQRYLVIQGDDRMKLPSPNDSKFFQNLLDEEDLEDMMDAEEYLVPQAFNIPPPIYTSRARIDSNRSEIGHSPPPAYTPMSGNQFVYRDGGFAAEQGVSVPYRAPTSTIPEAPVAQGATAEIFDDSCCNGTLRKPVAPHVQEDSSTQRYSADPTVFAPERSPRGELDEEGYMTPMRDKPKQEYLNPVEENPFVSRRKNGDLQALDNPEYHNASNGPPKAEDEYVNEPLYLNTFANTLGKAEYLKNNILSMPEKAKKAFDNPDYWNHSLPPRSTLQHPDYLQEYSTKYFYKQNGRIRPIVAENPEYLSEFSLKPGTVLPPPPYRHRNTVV
Chain of Hepatocyte growth factor receptor (P08581 whole entry): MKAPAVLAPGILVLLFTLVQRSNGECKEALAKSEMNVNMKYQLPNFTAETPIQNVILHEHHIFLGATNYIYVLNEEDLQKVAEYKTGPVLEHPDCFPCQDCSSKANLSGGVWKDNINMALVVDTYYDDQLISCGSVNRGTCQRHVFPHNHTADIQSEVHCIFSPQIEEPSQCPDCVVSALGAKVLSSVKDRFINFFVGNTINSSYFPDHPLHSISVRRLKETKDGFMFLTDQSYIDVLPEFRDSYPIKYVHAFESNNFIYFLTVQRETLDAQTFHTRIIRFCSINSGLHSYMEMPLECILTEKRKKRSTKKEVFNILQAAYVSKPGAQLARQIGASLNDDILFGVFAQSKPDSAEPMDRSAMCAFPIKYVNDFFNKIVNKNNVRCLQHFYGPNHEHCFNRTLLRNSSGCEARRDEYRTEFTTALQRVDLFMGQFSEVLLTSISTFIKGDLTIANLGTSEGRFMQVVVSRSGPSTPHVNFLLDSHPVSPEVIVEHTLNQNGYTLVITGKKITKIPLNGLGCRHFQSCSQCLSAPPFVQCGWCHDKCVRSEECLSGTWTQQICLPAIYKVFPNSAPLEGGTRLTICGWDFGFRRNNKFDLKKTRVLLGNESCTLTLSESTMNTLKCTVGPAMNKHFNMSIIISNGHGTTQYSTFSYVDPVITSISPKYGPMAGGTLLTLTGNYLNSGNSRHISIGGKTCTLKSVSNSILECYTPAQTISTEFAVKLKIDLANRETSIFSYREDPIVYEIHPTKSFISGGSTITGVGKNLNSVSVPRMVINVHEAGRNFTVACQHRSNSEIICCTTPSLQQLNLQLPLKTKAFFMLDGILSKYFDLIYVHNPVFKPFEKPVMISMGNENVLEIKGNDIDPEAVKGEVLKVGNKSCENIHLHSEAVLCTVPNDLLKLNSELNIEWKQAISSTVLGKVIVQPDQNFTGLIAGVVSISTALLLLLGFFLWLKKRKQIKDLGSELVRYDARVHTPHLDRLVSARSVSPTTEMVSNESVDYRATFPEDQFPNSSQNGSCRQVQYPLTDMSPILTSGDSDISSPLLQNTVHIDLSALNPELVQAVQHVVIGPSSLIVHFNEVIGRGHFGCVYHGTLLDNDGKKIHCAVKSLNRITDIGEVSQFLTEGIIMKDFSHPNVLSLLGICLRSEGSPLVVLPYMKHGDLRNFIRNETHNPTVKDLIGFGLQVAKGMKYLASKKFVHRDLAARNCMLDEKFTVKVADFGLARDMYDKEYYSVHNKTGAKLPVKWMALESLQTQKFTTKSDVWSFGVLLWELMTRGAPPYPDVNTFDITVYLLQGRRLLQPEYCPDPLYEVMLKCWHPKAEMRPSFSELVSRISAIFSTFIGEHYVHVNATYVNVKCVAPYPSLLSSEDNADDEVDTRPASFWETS
Chain of Tyrosine-protein kinase Fes/Fps (P07332 whole entry): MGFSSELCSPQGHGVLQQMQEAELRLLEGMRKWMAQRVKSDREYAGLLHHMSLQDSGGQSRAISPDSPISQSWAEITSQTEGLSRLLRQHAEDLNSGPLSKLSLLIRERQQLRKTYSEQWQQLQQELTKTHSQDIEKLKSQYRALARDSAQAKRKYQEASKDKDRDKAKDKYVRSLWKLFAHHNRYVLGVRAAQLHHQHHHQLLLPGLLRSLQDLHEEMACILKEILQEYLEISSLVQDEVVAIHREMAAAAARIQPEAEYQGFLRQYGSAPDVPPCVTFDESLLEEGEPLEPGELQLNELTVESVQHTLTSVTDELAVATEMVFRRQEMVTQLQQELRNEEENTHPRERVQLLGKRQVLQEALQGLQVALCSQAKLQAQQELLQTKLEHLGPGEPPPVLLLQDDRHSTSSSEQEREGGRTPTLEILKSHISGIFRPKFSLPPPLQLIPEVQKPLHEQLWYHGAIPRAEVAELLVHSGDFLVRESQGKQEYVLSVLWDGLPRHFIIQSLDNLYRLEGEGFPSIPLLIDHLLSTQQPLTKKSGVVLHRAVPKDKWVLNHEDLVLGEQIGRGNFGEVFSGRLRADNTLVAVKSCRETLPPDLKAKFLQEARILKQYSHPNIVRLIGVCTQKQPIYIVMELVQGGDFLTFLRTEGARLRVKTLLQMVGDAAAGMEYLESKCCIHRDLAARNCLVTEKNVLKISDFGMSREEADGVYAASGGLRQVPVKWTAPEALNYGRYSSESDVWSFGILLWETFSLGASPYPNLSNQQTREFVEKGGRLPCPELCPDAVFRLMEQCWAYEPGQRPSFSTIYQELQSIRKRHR
Chain of Tyrosine-protein kinase Lck (P06239 whole entry): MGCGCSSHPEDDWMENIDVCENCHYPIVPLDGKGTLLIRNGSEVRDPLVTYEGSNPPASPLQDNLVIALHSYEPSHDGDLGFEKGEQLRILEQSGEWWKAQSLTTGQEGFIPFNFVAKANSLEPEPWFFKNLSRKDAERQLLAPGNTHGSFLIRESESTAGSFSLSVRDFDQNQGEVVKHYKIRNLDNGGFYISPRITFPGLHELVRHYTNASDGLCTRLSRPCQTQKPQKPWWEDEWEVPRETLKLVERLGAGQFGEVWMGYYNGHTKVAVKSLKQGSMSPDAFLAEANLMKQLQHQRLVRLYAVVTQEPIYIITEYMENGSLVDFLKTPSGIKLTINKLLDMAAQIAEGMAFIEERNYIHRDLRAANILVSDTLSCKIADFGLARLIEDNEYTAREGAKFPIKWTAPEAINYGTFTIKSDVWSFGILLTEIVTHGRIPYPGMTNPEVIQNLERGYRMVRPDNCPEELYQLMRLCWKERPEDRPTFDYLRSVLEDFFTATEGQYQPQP

CN(C)CCCNC(=O)c1csc2nc(-c3ccc(NC(=O)Nc4cc(C(C)(C)C)on4)cc3)cn12
10 µM: IC50 [8] | IC50 [15] | IC50 [32] | IC50 [33] | IC50 [37] | IC50 [45]
1.98 µM: IC50 [12]
> 10 µM: IC50 [1] | IC50 [2] | IC50 [4] | IC50 [5] | IC50 [6] | IC50 [7] | IC50 [9] | IC50 [10] | IC50 [14] | IC50 [16] | IC50 [17] | IC50 [18] | IC50 [19] | IC50 [20] | IC50 [22] | IC50 [23] | IC50 [27] | IC50 [28] | IC50 [29] | IC50 [30] | IC50 [34] | IC50 [36] | IC50 [38] | IC50 [39] | IC50 [40] | IC50 [41] | IC50 [42] | IC50 [43] | IC50 [44] | IC50 [46] | IC50 [47] | IC50 [48]
0.002 µM: IC50 [31]
1.19 µM: IC50 [25]
2.46 µM: IC50 [35]
3.3 µM: IC50 [24]
0.37 µM: IC50 [26]
0.986 µM: IC50 [21]
active: inhibition [3] | inhibition [11] | inhibition [13] Dose-dependent effect

— ChEMBL document CHEMBL3621115, “Discovery of 6-phenylimidazo[2,1-b]thiazole derivatives as a new type of FLT3 inhibitors” (Bioorg Med Chem Lett, 2015)
